In patent publication US20130012434A1, “NOVEL SPIRO IMIDAZOLONES AS GLUCAGON RECEPTOR ANTAGONISTS, COMPOSITIONS, AND METHODS FOR THEIR USE” (priority 2010, published 2013):
pIC50: −log10 of the molar value.

Target: T1, recombinant human glucagon receptor (Homo sapiens, UniProt P47871)
T1 construct: expressed in transfected cells; host or cells: CHO cells
Assay: Inhibition of glucagon-stimulated intracellular cAMP assay
Type: cell-based
Conditions: CHO cells expressing recombinant human glucagon receptor, stimulated with 300 pM glucagon, LANCE cAMP kit
Description: Inhibition of Glucagon-Stimulated Intracellular cAMP Assay
Chinese hamster ovary (CHO) cells expressing the recombinant human glucagon receptor were harvested with the aid of non-enzymatic cell dissociation solution (GIBCO 13151-014). The cells were then pelleted and suspended in the stimulation buffer (1×HBSS, 5 mM Hepes, 0.1% BSA, pH7.4 in presence of complete protease inhibitor and phosphodiesterase inhibitor). The adenylate cyclase assay was conducted following the LANCE cAMP Kit (Perkin Elmer, AD0262) instructions. Briefly, cells were preincubated with anti-cAMP antibody in the stimulation buffer with a final concentration of 3% DMSO for 30 minutes and then stimulated with 300 pM glucagon for 45 minutes. The reaction was stopped by incubating with the detection buffer containing Europium chelate of the Eu-SA/Biotin-cAMP tracer for 20 hours. The fluorescence intensity emitted from the assay was measured at 665 nm using PheraStar instruments. […] Standard cAMP concentrations were conducted concurrently for conversion of fluorescence signal to cAMP level. Data was analyzed using GraphPad Prism. IC50 values were calculated using non-linear regression analysis assuming single site competition. […] Some of the compounds of the invention shown in the examples measured less than about 5 μM in this assay; other examples measured less than about 500 nM; others less than about 100 nM. […]

T1 sequence (P47871 26-477): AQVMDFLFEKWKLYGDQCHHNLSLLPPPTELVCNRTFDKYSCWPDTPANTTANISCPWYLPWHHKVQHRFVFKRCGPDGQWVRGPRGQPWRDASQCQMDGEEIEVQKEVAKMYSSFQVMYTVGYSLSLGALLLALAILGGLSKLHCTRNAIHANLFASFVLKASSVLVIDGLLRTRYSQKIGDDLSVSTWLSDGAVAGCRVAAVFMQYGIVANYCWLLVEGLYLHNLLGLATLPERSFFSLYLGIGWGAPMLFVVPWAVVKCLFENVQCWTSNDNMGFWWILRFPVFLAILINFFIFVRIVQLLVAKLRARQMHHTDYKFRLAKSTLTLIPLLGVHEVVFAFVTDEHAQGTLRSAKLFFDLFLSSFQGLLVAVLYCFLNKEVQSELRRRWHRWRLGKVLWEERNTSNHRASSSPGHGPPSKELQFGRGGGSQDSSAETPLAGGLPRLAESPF

pIC50	Compound
7.21	CC(C)(C)CC[C@H](c1ccc(C(=O)NCCC(=O)O)cc1)N1C(=O)C(c2cccc(F)c2)=NC12CCC([Si](C)(C)C)CC2 (some centres unmarked) [Example 5.26]
7.66	CC(C)(C)CCOc1cccc(C2=NC3(CCC(C(C)(C)C)CC3)N([C@H](CCC(C)(C)C)c3ccc(C(=O)NCc4nn[nH]n4)cc3)C2=O)c1 (some centres unmarked) [Example 5.69]
